# Results taken from publication PMC10683025, “Discovery of a Hydroxylamine-Based Brain-Penetrant EGFR Inhibitor for Metastatic Non-Small-Cell Lung Cancer” (Journal of Medicinal Chemistry, 2023).
# Like-named read-outs stand apart in the source and are kept apart here.
# Columns and labels:
# EGFR del E746_A750 = biological target: T1, EGFR del E746_A750 (Homo sapiens, UniProt P00533, DEL746-750); experiment: KINOMEScan KdELECT Kd determination; type: binding
# T1 construct: purchased Eurofins DiscoverX (contract assay)
# T1 sequence (P00533 with tags, fused parts or gaps DEL746-750): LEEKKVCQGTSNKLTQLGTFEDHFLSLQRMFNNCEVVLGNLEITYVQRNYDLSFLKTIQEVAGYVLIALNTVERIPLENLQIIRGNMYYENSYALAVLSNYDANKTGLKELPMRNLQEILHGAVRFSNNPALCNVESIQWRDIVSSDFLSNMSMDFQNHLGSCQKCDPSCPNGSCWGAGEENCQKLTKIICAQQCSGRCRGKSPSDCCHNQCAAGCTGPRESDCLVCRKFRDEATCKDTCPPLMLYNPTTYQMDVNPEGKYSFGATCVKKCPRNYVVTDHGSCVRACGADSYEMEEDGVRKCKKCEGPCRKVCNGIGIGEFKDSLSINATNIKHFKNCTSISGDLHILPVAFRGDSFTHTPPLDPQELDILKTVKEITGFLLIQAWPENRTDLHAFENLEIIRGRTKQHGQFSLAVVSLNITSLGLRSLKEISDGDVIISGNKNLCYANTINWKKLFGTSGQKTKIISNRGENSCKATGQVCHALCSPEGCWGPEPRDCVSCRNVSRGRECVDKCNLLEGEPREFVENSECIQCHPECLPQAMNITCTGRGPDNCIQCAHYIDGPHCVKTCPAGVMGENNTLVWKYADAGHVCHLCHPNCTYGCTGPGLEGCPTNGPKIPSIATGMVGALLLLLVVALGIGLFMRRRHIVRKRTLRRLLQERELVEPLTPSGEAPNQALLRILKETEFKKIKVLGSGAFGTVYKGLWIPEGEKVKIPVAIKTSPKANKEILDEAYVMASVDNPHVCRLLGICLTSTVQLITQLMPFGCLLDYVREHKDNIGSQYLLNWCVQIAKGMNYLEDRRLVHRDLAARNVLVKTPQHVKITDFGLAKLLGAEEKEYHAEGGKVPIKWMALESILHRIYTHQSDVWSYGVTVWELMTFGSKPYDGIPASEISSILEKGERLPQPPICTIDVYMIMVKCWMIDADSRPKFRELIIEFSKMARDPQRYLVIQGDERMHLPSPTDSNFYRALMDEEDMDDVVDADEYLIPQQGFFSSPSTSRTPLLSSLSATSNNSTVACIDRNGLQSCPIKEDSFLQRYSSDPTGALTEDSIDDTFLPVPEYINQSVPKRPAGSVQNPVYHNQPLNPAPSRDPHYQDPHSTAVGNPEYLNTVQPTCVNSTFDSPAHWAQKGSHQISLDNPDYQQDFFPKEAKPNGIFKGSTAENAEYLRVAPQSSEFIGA
# Description: (§2) In vitro kinase activity (inhibitor binding constants (Kd) and biochemical inhibition (IC50’s)) were assessed by Eurofins DiscoverX (Kd determinations) and Eurofins Cerep (biochemical IC50 determinations).
# [1] = Plasma protein binding by equilibrium dialysis; type: in vitro ADME; details: human; for fraction unbound at 6 h, 5 μM: read-out: fu,plasma% / %Unbound (converted)
# Description: Plasma protein binding and brain tissue binding were determined by Pharmaron, Inc. using the equilibrium dialysis method. […] Following incubation, the samples were analyzed by LC-MS/MS and the concentrations of the compounds were determined in the buffer and plasma solution chambers.
# Plasma stability [2] = type: in vitro ADME, Sprague-Dawley rat; details: rat plasma
# Description: (§1) Assessment of compounds to determine stability in incubations containing plasma of human (Pharmaron) and Sprague-Dawley rat (IPHASE) was performed by Pharmaron, Inc. using the compound […] approach. Compounds were assessed in duplicate (n = 2) and incubated in plasma at 5 μM and samples (50 μL) were taken at 0, 15, 30, 60, and 120 min time points for analysis by LC-MS/MS. Peak area ratios were determined from the extracted ion chromatogram and the percent compound remaining at each time point was calculated by the following equation: [drawing 2] where peak area ratiot min is the peak area ratio of control and test compound at t min and peak area ratio0 min is the peak area ratio of control and test compound at zero time point.
# Solubility assay = type: physicochemical; details: buffer, pH 7.4, aqueous buffer; read-out: Aq. Sol.
# Description: Solubility was determined by Pharmaron, Inc. and each compound was assessed in duplicate (n = 2) by adding 15 μL of compound stock solution (10 mM in DMSO) into a 96-well plate along with 485 μL of buffer followed by shaking at 25 °C, 1100 rpm for 2 h. Wells were filtered, and samples (5 μL) were taken followed by dilution with an equal volume of DMSO (5 μL) and 490 μL of aqueous solution. Samples were analyzed by LC-MS/MS.
# EGFRL858R [3] = biological target: T2, EGFRL858R (Homo sapiens, UniProt P00533, L858R); experiment: KINOMEScan KdELECT Kd determination; type: binding; set-up: purchased Eurofins DiscoverX (contract assay)
# T2 sequence (P00533 25-1210 L858R): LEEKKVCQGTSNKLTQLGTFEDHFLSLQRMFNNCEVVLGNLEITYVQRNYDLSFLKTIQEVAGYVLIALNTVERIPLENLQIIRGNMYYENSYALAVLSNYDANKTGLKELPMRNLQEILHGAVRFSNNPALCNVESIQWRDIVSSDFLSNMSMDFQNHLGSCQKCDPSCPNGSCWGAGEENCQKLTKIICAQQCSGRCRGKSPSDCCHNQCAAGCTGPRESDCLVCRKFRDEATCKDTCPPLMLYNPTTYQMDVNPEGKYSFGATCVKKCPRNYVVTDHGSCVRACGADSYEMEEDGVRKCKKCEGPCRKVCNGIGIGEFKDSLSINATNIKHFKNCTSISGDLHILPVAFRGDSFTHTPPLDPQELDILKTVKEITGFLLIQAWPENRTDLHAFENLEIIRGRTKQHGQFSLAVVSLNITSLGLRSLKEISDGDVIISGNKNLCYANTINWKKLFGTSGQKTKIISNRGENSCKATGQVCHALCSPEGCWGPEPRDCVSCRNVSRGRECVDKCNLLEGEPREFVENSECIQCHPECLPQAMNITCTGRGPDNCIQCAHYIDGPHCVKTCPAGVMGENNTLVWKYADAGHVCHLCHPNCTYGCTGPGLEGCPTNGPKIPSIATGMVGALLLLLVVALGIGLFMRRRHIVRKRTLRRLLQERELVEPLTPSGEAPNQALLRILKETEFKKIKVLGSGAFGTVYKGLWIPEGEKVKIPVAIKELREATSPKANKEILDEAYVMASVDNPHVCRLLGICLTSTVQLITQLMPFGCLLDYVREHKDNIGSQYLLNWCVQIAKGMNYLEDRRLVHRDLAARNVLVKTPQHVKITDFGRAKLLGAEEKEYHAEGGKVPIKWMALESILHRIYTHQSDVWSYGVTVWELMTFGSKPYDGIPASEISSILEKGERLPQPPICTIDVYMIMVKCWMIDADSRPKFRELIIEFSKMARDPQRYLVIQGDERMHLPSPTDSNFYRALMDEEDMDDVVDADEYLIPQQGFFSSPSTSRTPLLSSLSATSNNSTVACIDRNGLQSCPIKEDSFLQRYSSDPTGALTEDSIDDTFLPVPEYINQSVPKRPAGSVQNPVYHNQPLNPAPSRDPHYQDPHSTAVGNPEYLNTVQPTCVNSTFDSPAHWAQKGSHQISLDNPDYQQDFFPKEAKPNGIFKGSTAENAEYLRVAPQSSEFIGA
# Description: as §2
# [4] = Lipophilicity, shake-flask; type: physicochemical; details: 1-octanol/PBS; 1-octanol and PBS (pH 7.4); read-out: logD7.4
# Description: Compound lipophilicity was determined by Pharmaron, Inc. using the shake-flask method with 1-octanol and PBS (pH 7.4). Each compound was assessed in duplicate (n = 2) at 1 μM in a 96-well plate shaken at 25 °C and 2000 rpm for 2 h. Samples were analyzed by liquid chromatography and tandem mass spectrometry (LC-MS/MS).
# EGFRL858R [5] = biological target: T2, EGFRL858R; experiment: KinaseProfiler enzymatic radiometric assay; type: biochemical; set-up: purchased Eurofins Cerep (KinaseProfiler, contract assay); details: ATP 10 μM, read-out: EGFR IC50
# Description: as §2
# [6] = Metabolic stability in liver microsomes; type: in vitro ADME, human; details: for Remaining Percentage: human LM
# Description: (§3) Microsome stability was assessed in duplicate (n = 2) in the presence and absence of nicotinamide adenine dinucleotide phosphate (NADPH) with liver microsomes (0.5 mg/mL) from human (BD Gentest) and Sprague-Dawley rats (BD Gentest). Compounds were incubated in liver microsomes at 1 μM and samples (30 μL) were taken at 0.5, 15, 30, 45, and 60 min time points for analysis by LC-MS/MS. Hepatocyte stability was assessed in duplicate (n = 2) at a working cell density of 0.5 × 10^6 cells/mL with hepatocytes from human (BiolVT), Sprague-Dawley rat (BiolVT), cynomolgus monkey (RILD) or beagle dog (BiolVT). […] The in vitro half-life and intrinsic clearances were determined as previously described.[76]
# (§4) In vitro half-life (in vitro t1/2) was determined from the slope value in [drawing 1] where k was determined by linear regression of the natural logarithm of the remaining percentage of the parent drug vs the incubation time curve.
# Plasma stability [7] = type: in vitro ADME, human; details: human plasma
# Description: as §1
# EGFRwt [8] = biological target: T3, EGFRwt (Homo sapiens, UniProt P00533); experiment: KinaseProfiler enzymatic radiometric assay; type: biochemical; details: wt, ATP 10 μM; read-out: EGFR IC50
# T3 construct: purchased Eurofins DiscoverX (contract assay)
# T3 sequence (P00533 25-1210): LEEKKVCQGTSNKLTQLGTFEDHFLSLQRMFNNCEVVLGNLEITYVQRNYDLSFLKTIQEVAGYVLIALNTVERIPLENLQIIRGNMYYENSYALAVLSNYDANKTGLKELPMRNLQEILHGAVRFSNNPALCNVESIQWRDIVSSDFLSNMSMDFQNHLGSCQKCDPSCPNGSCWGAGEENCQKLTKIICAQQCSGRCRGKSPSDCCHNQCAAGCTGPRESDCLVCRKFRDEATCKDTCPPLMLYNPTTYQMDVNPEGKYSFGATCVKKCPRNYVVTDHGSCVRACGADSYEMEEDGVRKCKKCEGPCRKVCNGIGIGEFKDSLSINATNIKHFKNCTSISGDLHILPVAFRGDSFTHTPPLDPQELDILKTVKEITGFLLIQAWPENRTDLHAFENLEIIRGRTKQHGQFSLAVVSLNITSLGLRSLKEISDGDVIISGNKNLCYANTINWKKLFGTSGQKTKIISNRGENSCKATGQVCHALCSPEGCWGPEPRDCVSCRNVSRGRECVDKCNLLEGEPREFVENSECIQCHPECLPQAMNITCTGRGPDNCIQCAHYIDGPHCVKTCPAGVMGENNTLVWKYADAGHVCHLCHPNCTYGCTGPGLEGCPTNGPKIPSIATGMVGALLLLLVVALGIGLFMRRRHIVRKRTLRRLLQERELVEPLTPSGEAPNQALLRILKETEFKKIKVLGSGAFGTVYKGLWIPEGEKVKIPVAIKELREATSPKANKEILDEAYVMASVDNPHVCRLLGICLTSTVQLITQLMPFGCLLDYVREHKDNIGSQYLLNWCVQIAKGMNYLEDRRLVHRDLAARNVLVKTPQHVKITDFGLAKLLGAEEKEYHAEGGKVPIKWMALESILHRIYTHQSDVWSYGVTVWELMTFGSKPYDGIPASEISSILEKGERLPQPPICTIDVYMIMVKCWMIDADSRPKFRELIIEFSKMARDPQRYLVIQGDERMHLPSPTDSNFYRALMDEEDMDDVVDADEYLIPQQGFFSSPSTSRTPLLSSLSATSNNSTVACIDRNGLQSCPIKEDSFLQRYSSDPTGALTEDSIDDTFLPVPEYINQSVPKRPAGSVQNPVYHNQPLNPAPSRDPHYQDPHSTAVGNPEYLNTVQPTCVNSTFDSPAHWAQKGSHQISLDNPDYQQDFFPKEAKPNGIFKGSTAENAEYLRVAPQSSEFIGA
# Description: as §2
# [9] = tested on: HCC827 (EGFR mutation = exon19del); experiment: CellTiter-Glo cell viability assay; type: cell-based, human; details: Homo sapiens, HCC827; 72 h, unadjusted for FBS
# Description: (§5) The NCI-H3255 cell line was obtained from CoBioer. […] NCI-H3255 cells were cultured in BEGM (Lonza) with 10% FBS. […] All cells were cultured in a humidified incubator with 5% CO2 at 37 °C.
# (§6) Viability assays using A431, HCC827, NCI-H1975, NCI-H3255, Ba/F3 EGFR-del E746_A750/C797S, Ba/F3 EGFR-L858R/C797S, AU565, SK-BR-3, and ZR-75-30 cells were performed at Crown BioScience.
# Caco-2 cells = experiment: Caco-2 permeability; type: in vitro ADME; details: Caco-2
# Description: (§7) A 96-well HTS Transwell plate (Corning) was used for Caco-2 and MDCKII-MDR1 cell seeding. […] Plates were incubated at 37 °C for 2 h, and samples (50 μL) were taken at the beginning and end of the incubation in both the donor and acceptor wells with the assay run in duplicate (n = 2). Samples were analyzed by LC-MS/MS.
# (§8) The efflux ratio was determined by using the following equation: [drawing 4] where Papp (B–A) indicates the apparent permeability in the basolateral to apical direction and Papp (A–B) indicates the apparent permeability in the apical to basolateral direction.
# Caco-2 permeability = type: in vitro ADME; details: human; for recovery at 2 h, 5 μM: Caco-2, Caco-2
# Description: as §7, §8
# [10] = Metabolic stability in liver microsomes; type: in vitro ADME, Sprague-Dawley rat; details: for Remaining Percentage: rat LM
# Description: as §3, §4
# [11] = tested on: NCI-H3255 (EGFR mutation = L858R); experiment: CellTiter-Glo cell viability assay; type: cell-based, human; details: Homo sapiens, NCI-H3255; 72 h, unadjusted for FBS
# Description: as §5, §6
# MDR1 = experiment: MDCKII-MDR1 permeability; type: in vitro ADME, canine; details: dog, MDCK-MDR1
# Description: as §7, §8
# MDCKII-MDR1 cells = experiment: MDCKII-MDR1 permeability; type: in vitro ADME, canine; details: MDCKII-MDR1
# Description: as §7, §8
# MDCKII-MDR1 permeability = type: in vitro ADME, canine; details: dog, MDCK-MDR1, MDCKII-MDR1
# Description: as §7, §8
# EGFRwt [12] = biological target: T3, EGFRwt; experiment: KINOMEScan KdELECT Kd determination; type: binding; details: wt; read-out: EGFR Kd
# Description: as §2
smiles,measurement,setting,value
"COc1cc2ncnc(Nc3ccc(F)c(Cl)c3)c2cc1OCCON1CCOCC1 [Compound 6, N-(3-Chloro-4-fluorophenyl)-7-methoxy-6-(2-(morpholinooxy)ethoxy)quinazolin-4-amine]",Kd,EGFR del E746_A750,0.3 nM
same,"recovery at 6 h, 5 μM",[1]; human plasma,101%
same,"remaining at 6 h, 5 μM",[1]; human plasma,99.5%
same,"fraction unbound at 6 h, 5 μM",[1]; human plasma,0.0512
same,"fraction unbound at 6 h, 5 μM","[1]; plasma, 5 μM",0.0512
same,Remaining Percentages,Plasma stability [2]; 15 min,100.23%
same,Remaining Percentages,Plasma stability [2]; 30 min,99.35%
same,Remaining Percentages,Plasma stability [2]; 60 min,99.28%
same,Remaining Percentages,Plasma stability [2]; 120 min,104.21%
same,t1/2,Plasma stability [2]; ∞ = no degradation,∞
same,solubility kinetic at 2 h,Solubility assay,1 µM
same,Kd,EGFRL858R [3]; L858R,0.8 nM
same,binding and biochemical inhibition of activating mutant bearing EGFR,"EGFRL858R [3]; in words, Tables S1 and S3",single-digit nanomolar
same,"logD at 2 h, 1 µM",[4],3.9
same,IC50,EGFRL858R [5],< 1 nM
same,Remaining Percentage,"[6]; +Cofactors, 15 min",49.30%
same,Remaining Percentage,"[6]; +Cofactors, 30 min",28.74%
same,Remaining Percentage,"[6]; +Cofactors, 45 min",20.85%
same,Remaining Percentage,"[6]; +Cofactors, 60 min",14.00%
same,Remaining Percentage,"[6]; -Cofactors, 60 min",89.19%
same,"half-life at 1 h, 1 µM","[6]; human, liver microsomes, read-out: LM t1/2",21.6 min
same,"microsomal CLint at 1 h, 1 µM","[6]; human, liver microsomes, read-out: LMClint",64 µL/min/mg
same,Remaining Percentages,Plasma stability [7]; 15 min,98.26%
same,Remaining Percentages,Plasma stability [7]; 30 min,102.87%
same,Remaining Percentages,Plasma stability [7]; 60 min,101.74%
same,Remaining Percentages,Plasma stability [7]; 120 min,97.90%
same,t1/2,Plasma stability [7]; ∞ = no degradation,∞
same,IC50,EGFRwt [8],5 nM
same,IC50,[9],4.2 nM
same,enhancement in permeability compared with 1,Caco-2 cells,14 fold
same,"efflux ratio at 2 h, 5 µM",Caco-2 permeability; Caco-2,1.9
same,"efflux ratio at 2 h, 5 μM",Caco-2 permeability; Caco-2,1.91
same,"recovery at 2 h, 5 μM",Caco-2 permeability; read-out: Recovery% (AP-BL),53.8%
same,"recovery at 2 h, 5 μM",Caco-2 permeability; read-out: Recovery% (BL-AP),60.3%
same,"Papp A→B at 2 h, 5 µM","Caco-2 permeability; Caco-2, 5 μM, 2 h",5.6 ×10⁻⁶ cm/s
same,"Papp A→B at 2 h, 5 μM","Caco-2 permeability; Caco-2, 5 μM, 2 h",5.59 ×10⁻⁶ cm/s
same,"Papp B→A at 2 h, 5 µM","Caco-2 permeability; Caco-2, 5 μM, 2 h",10.7 ×10⁻⁶ cm/s
same,"Papp B→A at 2 h, 5 μM","Caco-2 permeability; Caco-2, 5 μM, 2 h",10.7 ×10⁻⁶ cm/s
same,"half-life at 1 h, 1 µM","[10]; Sprague-Dawley, rat, liver microsomes, read-out: LM t1/2",19.5 min
same,"microsomal CLint at 1 h, 1 µM","[10]; Sprague-Dawley, rat, liver microsomes, read-out: LMClint",71 µL/min/mg
same,Remaining Percentage,"[10]; +Cofactors, 15 min",50.62%
same,Remaining Percentage,"[10]; +Cofactors, 30 min",25.81%
same,Remaining Percentage,"[10]; +Cofactors, 45 min",17.98%
same,Remaining Percentage,"[10]; +Cofactors, 60 min",11.88%
same,Remaining Percentage,"[10]; -Cofactors, 60 min",109.68%
same,IC50,[11],88 nM
same,"efflux ratio at 2 h, 1 µM",MDR1,2
same,"efflux ratio at 2 h, 1 μM",MDR1,1.99
same,"Papp A→B at 2 h, 1 µM","MDR1; 1 μM, 2 h",4.2 ×10⁻⁶ cm/s
same,"Papp A→B at 2 h, 1 μM","MDR1; 1 μM, 2 h",4.19 ×10⁻⁶ cm/s
same,"Papp B→A at 2 h, 1 µM","MDR1; 1 μM, 2 h",8.3 ×10⁻⁶ cm/s
same,"Papp B→A at 2 h, 1 μM","MDR1; 1 μM, 2 h",8.26 ×10⁻⁶ cm/s
same,increase in permeability compared to 1,MDCKII-MDR1 cells,roughly 4 fold
same,"recovery at 2 h, 1 μM",MDCKII-MDR1 permeability; read-out: Recovery% (AP-BL),51.6%
same,"recovery at 2 h, 1 μM",MDCKII-MDR1 permeability; read-out: Recovery% (BL-AP),66.4%
same,Kd,EGFRwt [12],0.6 nM
